In US11274083B2, “Substituted thiophenyl uracils, salts thereof and the use thereof as herbicidal agents” (Syngenta Crop Protection AG, priority 2017, dated 2022):

Tests used:
Format in all cases: in vivo
Abutilon theophrasti [1] = assay: Herbicidal action post-emergence, greenhouse pot test
How it was run: (§1)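 Visual efficacy scoring (0% like untreated, 100% plant death) about 3 weeks post-treatment. Application, at ≤80 g/ha, was a post-emergence spray of wettable-powder or emulsion-concentrate formulations in water with 0.5% additive at 600 L/ha onto one-leaf-stage plants grown 2–3 weeks from seed in sandy loam.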

Alopecurus myosuroides [2] = assay: as above; conditions: application rate 80 g/ha, scored visually after about 3 weeks vs untreated controls
How it was run: as §1

Amaranthus retroflexus [3] = assay: as above
How it was run: as §1

Echinochloa crus-galli [4] = assay: as above; conditions: application rate 80 g/ha
How it was run: as §1

Lolium rigidum [5] = assay: as above; conditions: application rate 80 g/ha
How it was run: as §1

Matricaria inodora [6] = assay: as above
How it was run: as §1

Pharbitis purpurea [7] = assay: as above
How it was run: as §1

Polygonum convolvulus [8] = assay: as above
How it was run: as §1

Setaria viridis [9] = assay: as above
How it was run: as §1

Stellaria media [10] = assay: as above; conditions: application rate 80 g/ha
How it was run: as §1

Veronica persica [11] = assay: as above; conditions: application rate 80 g/ha
How it was run: as §1

Viola tricolor [12] = assay: as above
How it was run: as §1

Oryza sativa = assay: Crop compatibility post-emergence, greenhouse pot test
How it was run: (§2)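 Crops grown in sandy loam in greenhouse pots; treated post-emergence at one-leaf stage, 2–3 weeks after sowing, spraying WP or EC formulations as aqueous suspension/emulsion with 0.5% additive at 600 L/ha. Damage scored visually after about 3 weeks against untreated controls (0% = like control, 100% = dead).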

Triticum aestivum = assay: as above; conditions: application rate 20 g/ha
How it was run: as §2

Abutilon theophrasti [13] = assay: Herbicidal action pre-emergence, greenhouse pot test
Excerpt: (§3) Seeds of mono- and dicotyledonous weeds and crop plants were laid out in plastic or organic plant pots and covered with soil. The compounds of the invention formulated in the form of wettable powders (WP) or as emulsion concentrates (EC) were then applied to the surface of the covering soil as an aqueous suspension or emulsion with addition of 0.5% additive at a water application rate equivalent to 600 L/ha. After the treatment, the pots were placed in a greenhouse and kept under good growth conditions for the test plants. After about 3 weeks, the efficacy of the preparations was scored visually as a percentage by comparison with untreated controls. For example, 100% efficacy=plants have died. 0% efficacy=like control plants. Tables B1 to B17 below show the efficacies of selected compounds of the general formula (I) according to tables I.1 to I.50 on various harmful plants and an application rate corresponding to 320 g/ha or lower that were obtained by the aforementioned trial method.

Alopecurus myosuroides [14] = assay: as above; conditions: application rate 320 g/ha
Excerpt: as §3

Amaranthus retroflexus [15] = assay: as above
Excerpt: as §3

Cyperus esculentus = assay: as above; conditions: application rate 320 g/ha
Excerpt: as §3

Echinochloa crus-galli [16] = assay: as above; conditions: application rate 320 g/ha
Excerpt: as §3

Hordeum murinum = assay: as above; conditions: application rate 320 g/ha
Excerpt: as §3

Lolium rigidum [17] = assay: as above; conditions: application rate 320 g/ha
Excerpt: as §3

Pharbitis purpurea [18] = assay: as above; conditions: application rate 320 g/ha
Excerpt: as §3

Polygonum convolvulus [19] = assay: as above
Excerpt: as §3

Setaria viridis [20] = assay: as above
Excerpt: as §3

Stellaria media [21] = assay: as above; conditions: application rate 80 g/ha
Excerpt: as §3

Veronica persica [22] = assay: as above
Excerpt: as §3

Viola tricolor [23] = assay: as above
Excerpt: as §3

Matricaria inodora [24] = assay: as above; conditions: application rate 80 g/ha
Excerpt: as §3, with “according to tables I.1 to I.50 on various harmful plants and an application rate corresponding to 320 g/ha or lower that were obtained by the” left out

Avena fatua = assay: as above; conditions: application rate 320 g/ha
Excerpt: as §3

COC(=O)CC(C)OC(=O)C(C)Sc1cc(-n2c(=O)cc(C(F)(F)F)n(C)c2=O)c(F)cc1Cl (stereo not drawn) [I.1-22]
Abutilon theophrasti (Efficacy in %) (Abutilon theophrasti [1]; application rate 80 g/ha): 100%
Alopecurus myosuroides (Efficacy in %) (Alopecurus myosuroides [2]): 80%
Amaranthus retroflexus (Efficacy in %) (Amaranthus retroflexus [3]; application rate 80 g/ha): 100%
Echinochloa crus-galli (Efficacy in %) (Echinochloa crus-galli [4]): 100%
Lolium rigidum (Efficacy in %) (Lolium rigidum [5]): 90%
Matricaria inodora (Efficacy in %) (Matricaria inodora [6]; application rate 80 g/ha): 100%
Pharbitis purpurea (Efficacy in %) (Pharbitis purpurea [7]; application rate 80 g/ha): 100%
Polygonum convolvulus (Efficacy in %) (Polygonum convolvulus [8]; application rate 80 g/ha): 100%
Setaria viridis (Efficacy in %) (Setaria viridis [9]; application rate 80 g/ha): 100%
Stellaria media (Efficacy in %) (Stellaria media [10]): 100%
Veronica persica (Efficacy in %) (Veronica persica [11]): 100%
Viola tricolor (Efficacy in %) (Viola tricolor [12]; application rate 80 g/ha): 100%
Oryza sativa (Efficacy in %) (Oryza sativa; application rate 5 g/ha): 0%
Triticum aestivum (Efficacy in %) (Triticum aestivum): 20%
Abutilon theophrasti (Efficacy in %) (Abutilon theophrasti [13]; application rate 80 g/ha): 100%
Alopecurus myosuroides (Efficacy in %) (Alopecurus myosuroides [14]): 80%
Amaranthus retroflexus (Efficacy in %) (Amaranthus retroflexus [15]; application rate 80 g/ha): 100%
Cyperus esculentus (Efficacy in %) (Cyperus esculentus): 90%
Echinochloa crus-galli (Efficacy in %) (Echinochloa crus-galli [16]): 100%
Hordeum murinum (Efficacy in %) (Hordeum murinum): 100%
Lolium rigidum (Efficacy in %) (Lolium rigidum [17]): 100%
Pharbitis purpurea (Efficacy in %) (Pharbitis purpurea [18]): 100%
Polygonum convolvulus (Efficacy in %) (Polygonum convolvulus [19]; application rate 80 g/ha): 100%
Setaria viridis (Efficacy in %) (Setaria viridis [20]; application rate 80 g/ha): 100%
Stellaria media (Efficacy in %) (Stellaria media [21]): 100%
Veronica persica (Efficacy in %) (Veronica persica [22]; application rate 320 g/ha): 100%
Viola tricolor (Efficacy in %) (Viola tricolor [23]; application rate 80 g/ha): 100%
Matricaria inodora (Efficacy in %) (Matricaria inodora [24]): 100%

COC(=O)C(C)OC(=O)C(C)Sc1cc(-n2c(=O)cc(C(F)(F)F)n(C)c2=O)c(F)cc1Cl (stereo not drawn) [I.1-72]
Abutilon theophrasti (Efficacy in %) (Abutilon theophrasti [1]; application rate 20 g/ha): 100%
Amaranthus retroflexus (Efficacy in %) (Amaranthus retroflexus [3]; application rate 20 g/ha): 100%
Echinochloa crus-galli (Efficacy in %) (Echinochloa crus-galli [4]): 100%
Matricaria inodora (Efficacy in %) (Matricaria inodora [6]; application rate 80 g/ha): 100%
Pharbitis purpurea (Efficacy in %) (Pharbitis purpurea [7]; application rate 20 g/ha): 100%
Polygonum convolvulus (Efficacy in %) (Polygonum convolvulus [8]; application rate 80 g/ha): 100%
Setaria viridis (Efficacy in %) (Setaria viridis [9]; application rate 20 g/ha): 100%
Stellaria media (Efficacy in %) (Stellaria media [10]): 100%
Veronica persica (Efficacy in %) (Veronica persica [11]): 100%
Viola tricolor (Efficacy in %) (Viola tricolor [12]; application rate 80 g/ha): 100%
Oryza sativa (Efficacy in %) (Oryza sativa; application rate 20 g/ha): 10%
Triticum aestivum (Efficacy in %) (Triticum aestivum): 20%
Abutilon theophrasti (Efficacy in %) (Abutilon theophrasti [13]; application rate 80 g/ha): 100%
Amaranthus retroflexus (Efficacy in %) (Amaranthus retroflexus [15]; application rate 20 g/ha): 100%
Avena fatua (Efficacy in %) (Avena fatua): 90%
Cyperus esculentus (Efficacy in %) (Cyperus esculentus): 100%
Echinochloa crus-galli (Efficacy in %) (Echinochloa crus-galli [16]): 100%
Hordeum murinum (Efficacy in %) (Hordeum murinum): 80%
Pharbitis purpurea (Efficacy in %) (Pharbitis purpurea [18]): 100%
Polygonum convolvulus (Efficacy in %) (Polygonum convolvulus [19]; application rate 80 g/ha): 100%
Setaria viridis (Efficacy in %) (Setaria viridis [20]; application rate 80 g/ha): 100%
Stellaria media (Efficacy in %) (Stellaria media [21]): 100%
Veronica persica (Efficacy in %) (Veronica persica [22]; application rate 80 g/ha): 100%
Viola tricolor (Efficacy in %) (Viola tricolor [23]; application rate 80 g/ha): 100%
Matricaria inodora (Efficacy in %) (Matricaria inodora [24]): 100%

CCOC(=O)CC(C)OC(=O)CSc1cc(-n2c(=O)cc(C(F)(F)F)n(C)c2=O)c(F)cc1Cl (stereo not drawn) [I.8-23]
Abutilon theophrasti (Efficacy in %) (Abutilon theophrasti [1]; application rate 80 g/ha): 100%
Amaranthus retroflexus (Efficacy in %) (Amaranthus retroflexus [3]; application rate 80 g/ha): 100%
Echinochloa crus-galli (Efficacy in %) (Echinochloa crus-galli [4]): 100%
Matricaria inodora (Efficacy in %) (Matricaria inodora [6]; application rate 20 g/ha): 100%
Pharbitis purpurea (Efficacy in %) (Pharbitis purpurea [7]; application rate 20 g/ha): 100%
Polygonum convolvulus (Efficacy in %) (Polygonum convolvulus [8]; application rate 20 g/ha): 100%
Setaria viridis (Efficacy in %) (Setaria viridis [9]; application rate 80 g/ha): 100%
Stellaria media (Efficacy in %) (Stellaria media [10]): 100%
Veronica persica (Efficacy in %) (Veronica persica [11]): 100%
Viola tricolor (Efficacy in %) (Viola tricolor [12]; application rate 20 g/ha): 100%
Oryza sativa (Efficacy in %) (Oryza sativa; application rate 5 g/ha): 20%
Triticum aestivum (Efficacy in %) (Triticum aestivum): 20%
Abutilon theophrasti (Efficacy in %) (Abutilon theophrasti [13]; application rate 320 g/ha): 100%
Amaranthus retroflexus (Efficacy in %) (Amaranthus retroflexus [15]; application rate 80 g/ha): 100%
Cyperus esculentus (Efficacy in %) (Cyperus esculentus): 90%
Echinochloa crus-galli (Efficacy in %) (Echinochloa crus-galli [16]): 100%
Hordeum murinum (Efficacy in %) (Hordeum murinum): 80%
Lolium rigidum (Efficacy in %) (Lolium rigidum [17]): 90%
Pharbitis purpurea (Efficacy in %) (Pharbitis purpurea [18]): 100%
Polygonum convolvulus (Efficacy in %) (Polygonum convolvulus [19]; application rate 320 g/ha): 100%
Setaria viridis (Efficacy in %) (Setaria viridis [20]; application rate 320 g/ha): 100%
Stellaria media (Efficacy in %) (Stellaria media [21]): 100%
Veronica persica (Efficacy in %) (Veronica persica [22]; application rate 320 g/ha): 100%
Viola tricolor (Efficacy in %) (Viola tricolor [23]; application rate 320 g/ha): 100%
Matricaria inodora (Efficacy in %) (Matricaria inodora [24]): 100%
